Values after ≈ are worked out from the molar mass of the structure shown. Like-named read-outs stand apart in the source and are kept apart here. Numbered stars: 1 amine (or outer) side, 2 acyl side, 3 side chain; on linkers, the order of the positions; unused ones are H or OH. Bridge positions count the residues as written; N and C are the ends. Square brackets hold non-standard residues; d marks the D form. Peptide text beside a SMILES is read from it. * marks the point of attachment. Phe(3-Me) = Cc1cccc(C[C@H](N)C(=O)O)c1; Pro(4R-Me) = C[C@H]1CN[C@H](C(=O)O)C1; Hyp = O=C(O)[C@@H]1C[C@@H](O)CN1; NH(4-Cl-phenyl) = Clc1ccc(N*)cc1; NH(4-Me-phenyl) = Cc1ccc(N*)cc1; NH(4-F-phenyl) = Fc1ccc(N*)cc1; aThr = C[C@H](O)[C@H](N)C(=O)O; Pip = O=C(O)[C@@H]1CCCCN1; CO = O=C([*:1])[*:2]
Key:
S. aureus ClpP (Sa-ClpP) = biological target: T1, S. aureus ClpP (Sa-ClpP) (Staphylococcus aureus, UniProt Q2G036); assay: Casein-BODIPY digestion assay (ClpP activation); format: biochemical
T1 construct: made in house; host or cells: E. coli BL21 (DE3)
T1 sequence (Q2G036 whole entry): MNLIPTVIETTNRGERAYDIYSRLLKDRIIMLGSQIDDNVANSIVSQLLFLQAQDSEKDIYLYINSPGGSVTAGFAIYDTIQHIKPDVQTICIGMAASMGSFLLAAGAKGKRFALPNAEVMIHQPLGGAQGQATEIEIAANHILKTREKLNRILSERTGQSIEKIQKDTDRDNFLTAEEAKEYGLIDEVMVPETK
Protocol: The compounds were assayed in a casein digestion assay in order to determine their effect on ClpP activation. Briefly, the assay was carried out using S. aureus ClpP (“Sa-ClpP”) overexpressed in E. coli BL21 (DE3) and purified in a two-step process. Purity of the protein was assessed through SDS PAGE analysis. EC50 evaluations were conducted in triplicate in a 20 μl assay format using a method adapted from Maurizi et al. (Methods Enzymol. (1994) 244:314-331). Each well contained 10 μM saClpP, 25 μg/ml BODIPY FL casein (Invitrogen Corporation, San Diego, Calif.), and test compound in concentrations ranging between 0-1000 μM in assay buffer (50 mM Tris pH 8, 200 mM KCl, and 1 mM TCEP). The reaction took place at 37° C. Fluorescence (excitation 485 nm; emission 528 nm) was measured in five minute intervals over a 45 min period using a BioTek HT fluorescence microplate reader (BioTek Instruments, Inc., Winooski, Vt.). Velocity of each reaction was calculated and data was fit to a dose response curve using GraphPad Prism® software (GraphPad Software, Inc., La Jolla, Calif.). EC50 is the effective concentration of compound which causes 50% activation of S. aureus ClpP in the foregoing BODIPY FL casein assay.
Alternatively, the assay was carried out using EnzCheck Protease Assay (Molecular Probes, Catalog # E6638). The assay was performed in black 384 well, flat bottom, low volume plates (Greiner Bio-One, Monroe, N.C., catalog #784076). 10 μL of Tris.HCl buffer, pH 8.0 with 0.01% Triton X-100 was pipetted into each well using a Well-Mate (Thermo Scientific, Waltham, Mass.). 0.4 μL test compounds or controls (2% DMSO v/v) were added to each well using a Biomek FX liquid handling robot (Beckman Coulter, Indianapolis, Ind.). After addition of test compounds and controls, 10 μL of master mix containing 2 μM Sa-ClpP and 2 μM substrate (Bodipy-FL labeled casein) in Tris.HCl buffer, pH 8.0 with 0.01% (v/v) Triton X-100, was pipetted into each well. All assays were performed in triplicate, under linear velocity conditions. Increase in fluorescent signal following activation of Sa-ClpP by test compounds and controls was measured over time period of 30 mins using filters with excitation at 485±15 nm and emission at 520±25 nm on a PHERAstar FS Multilabel reader (BMG, Cary, N.C.). Instrument gains and enzyme linear velocity conditions were determined and validated using ADEP4, a known Sa-ClpP activator. Data analysis was done by measuring rate of casein degradation over time (slopes). Computed degradation rates (slopes) were normalized to positive (ADEP4) or negative (DMSO) controls. Using nonlinear regression curve fitting EC50 values and % activation were determined using the equation “log [agonist] vs. Response-variable slope (four parameters)-symmetrical” in the program Prism 6 (GraphPad Software, La Jolla, Calif. USA, www.graphpad.com).

E. faecails = assay: Minimal inhibitory concentration, microbroth dilution; format: cell-based; settings: Enterococcus faecalis
Protocol: (§1) Minimal inhibitory concentrations (“MICs”) were determined using the microbroth dilution method according to Clinical Laboratory Standards Institute (CLSI; National, C.F. C. L. S., Methods for Dilution Antimicrobial Susceptibility Tests for Bacteria Grow aerobically-Seventh Edition: Approved Standard M7-A7, CLSI, Wayne, Pa., USA, 2008) and were read by visual inspection. Two fold serial dilutions of test compound in 100 μL of the appropriate broth media were first prepared in 96-well round bottom microtiter plates (Nalgene Nunc International, Rochester, N.Y., USA). An equivalent volume (100 μL) of bacterial broth inocula containing approximately 10^5 bacterial cfu/mL was added to each well to give final concentrations of test compound starting at 200 μM. The plates were then incubated aerobically at 37° C. All strains were incubated overnight. After incubations, in all cases the MIC was recorded as the lowest concentration of drug that prevented bacterial growth. The bacterial strains for which MIC was determined as described in Table 4.

S. aureus ATCC 29213 = assay: as above; format: cell-based; settings: Staphylococcus aureus
Protocol: as §1

MRSA NRS70 = assay: as above; format: cell-based; settings: Staphylococcus aureus
Protocol: as §1

S. aureus USA 300 = assay: as above; format: cell-based; settings: Staphylococcus aureus
Protocol: as §1

S. aureus ΔClpP = assay: as above; format: cell-based, Staphylococcus aureus; settings: MIC; ClpP inactivated
Protocol: as §1

[1] = read-out: Minimal Inhibitory Concentrations (μM) E. faecails, MIC
[2] = ATCC29213, read-out: Minimal Inhibitory Concentrations (μM) S. aureus ATCC 29213, MIC
[3] = read-out: Minimal Inhibitory Concentrations (μM) MRSA NRS70, MIC
[4] = USA300, read-out: Minimal Inhibitory Concentrations (μM) S. aureus USA 300, MIC

Cc1cccc(C[C@H](NC(=O)Nc2ccc(F)cc2)C(=O)N[C@@H]2C(=O)N3C[C@H](O)C[C@H]3C(=O)N3CCCC[C@H]3C(=O)N[C@@H](C)C(=O)N3C[C@H](C)C[C@H]3C(=O)O[C@H]2C)c1 [Compound 79, (S)-2-(3-(4-FLUOROPHENYL)UREIDO)-N-((2R,6S,8AS,14AS,16R,20S,21S,23AS)-16-HYDROXY-2,6,21-TRIMETHYL-5,8,14,19,23-PENTAOXOOCTADECAHYDRO-1H,5H,14H,19H-PYRIDO[2,1-I]DIPYRROLO[2,1-C:2′,1′-L][1]OXA[4,7,10,13]TETRAAZACYCLOHEXADECIN-20-YL)-3-(M-TOLYL)PROPANAMIDE] ({NH(4-F-phenyl)-CO}-[Phe(3-Me)][aThr][Hyp][Pip]A[Pro(4R-Me)]; ester 2-C)
EC50 (S. aureus ClpP (Sa-ClpP)): 0.9 ± 0.6 µM

Cc1cccc(C[C@H](NC(=O)Nc2ccc(Cl)cc2)C(=O)N[C@@H]2C(=O)N3C[C@H](O)C[C@H]3C(=O)N3CCCC[C@H]3C(=O)N[C@@H](C)C(=O)N3CCC[C@H]3C(=O)O[C@H]2C)c1 [Compound 59, (S)-2-(3-(4-CHLOROPHENYL)UREIDO)-N-((6S,8AS,14AS,16R,20S,21S,23AS)-16-HYDROXY-6,21-DIMETHYL-5,8,14,19,23-PENTAOXOOCTADECAHYDRO-1H,5H,14H,19H-PYRIDO[2,1-I]DIPYRROLO[2,1-C:2′,1′-L][1]OXA[4,7,10,13]TETRAAZACYCLOHEXADECIN-20-YL)-3-(M-TOLYL)PROPANAMIDE] ({NH(4-Cl-phenyl)-CO}-[Phe(3-Me)][aThr][Hyp][Pip]AP; ester 2-C)
EC50 (S. aureus ClpP (Sa-ClpP)): 0.81 ± 0.5 µM
MIC (E. faecails; [1]): 5 µM (≈ 4.04 µg/mL)
MIC (S. aureus ATCC 29213; [2]): 2.5 µM (≈ 2.02 µg/mL)
MIC (MRSA NRS70; [3]): 1.25 µM (≈ 1.01 µg/mL)
MIC (S. aureus USA 300; [4]): 1.25 µM (≈ 1.01 µg/mL)

Cc1cccc(C[C@H](NC(=O)Nc2ccc(Cl)cc2F)C(=O)N[C@H]2COC(=O)[C@@H]3CCCN3C(=O)[C@H](C)NC(=O)[C@@H]3CCCCN3C(=O)[C@@H]3C[C@@H](O)CN3C2=O)c1 [Compound 48, (S)-2-(3-(4-CHLORO-2-FLUOROPHENYL)UREIDO)-N-((6S,8AS,14AS,16R,20S,23AS)-16-HYDROXY-6-METHYL-5,8,14,19,23-PENTAOXOOCTADECAHYDRO-1H,5H,14H,19H-PYRIDO[2,1-I]DIPYRROLO[2,1-C:2′,1′-L][1]OXA[4,7,10,13]TETRAAZACYCLOHEXADECIN-20-YL)-3-(M-TOLYL)PROPANAMIDE]
MIC (E. faecails; MIC, read-out: Minimal Inhibitory Concentrations (μM) E. faecails): 2.5 µM (≈ 2.03 µg/mL)
MIC (S. aureus ATCC 29213; ATCC29213, MIC, read-out: Minimal Inhibitory Concentrations (μM) S. aureus ATCC 29213): 1.25 µM (≈ 1.02 µg/mL)
MIC (MRSA NRS70; MIC, read-out: Minimal Inhibitory Concentrations (μM) MRSA NRS70): 1.25 µM (≈ 1.02 µg/mL)
MIC (S. aureus USA 300; USA300, MIC, read-out: Minimal Inhibitory Concentrations (μM) S. aureus USA 300): 1.25 µM (≈ 1.02 µg/mL)

Cc1ccc(NC(=O)N[C@@H](Cc2cccc(C)c2)C(=O)N[C@@H]2C(=O)N3C[C@H](O)C[C@H]3C(=O)N3CCCC[C@H]3C(=O)N[C@@H](C)C(=O)N3CCC[C@H]3C(=O)O[C@H]2C)cc1 [Compound 51, (S)—N-((6S,8AS,14AS,16R,20S,21S,23AS)-16-HYDROXY-6,21-DIMETHYL-5,8,14,19,23-PENTAOXOOCTADECAHYDRO-1H,5H,14H,19H-PYRIDO[2,1-I]DIPYRROLO[2,1-C:2′,1′-L][1]OXA[4,7,10,13]TETRAAZACYCLOHEXADECIN-20-YL)-3-(M-TOLYL)-2-(3-(P-TOLYL)UREIDO)PROPANAMIDE] ({NH(4-Me-phenyl)-CO}-[Phe(3-Me)][aThr][Hyp][Pip]AP; ester 2-C)
Minimal Inhibitory Concentrations (μM) S. aureus ΔClpP (S. aureus ΔClpP): >20 µM
MIC (E. faecails; [1]): 5 µM (≈ 3.94 µg/mL)
MIC (S. aureus ATCC 29213; [2]): 5 µM (≈ 3.94 µg/mL)
MIC (MRSA NRS70; [3]): 2.5 µM (≈ 1.97 µg/mL)
MIC (S. aureus USA 300; [4]): 5 µM (≈ 3.94 µg/mL)

From patent publication US10570179B2, “Substituted urea depsipeptide analogs as activators of the CLPP endopeptidase” (priority 2016, dated 2020)
